Data as given in patent US6525059B1, “Substituted pyrazoles as p38 kinase inhibitors” (G. D. Searle & Company, priority 1998, dated 2003).

These molecules were tested against T1, human p38 kinase alpha (Homo sapiens, UniProt Q16539) (assay: p38 kinase in vitro assay, phosphorylation of biotinylated PHAS-I with gamma 32P-ATP). Settings: @ 1.0 uM.
T1 construct: The coding region of the human p38a cDNA was obtained by PCR-amplification from RNA isolated from the human monocyte cell line THP.1; GST (N); made in house; host or cells: E. coli DH10B
Assay type: biochemical
Procedure: The ability of compounds to inhibit human p38 kinase alpha was evaluated using two in vitro assay methods. In the first method activated human p38 kinase alpha phosphorylates a biotinylated substrate, PHAS-I (phosphorylated heat and acid stable protein-insulin inducible), in the presence of gamma ^32P-ATP (^32P-ATP). PHAS-I was biotinylated prior to the assay and provides a means of capturing the substrate which is phosphorylated during the assay. p38 Kinase was activated by MKK6. Compounds were tested in 10 fold serial dilutions over the range of 100 μM to 0.001 μM using 1% DMSO. Each concentration of inhibitor was tested in triplicate.
All reactions were carried out in 96 well polypropylene plates. Each reaction well contained 25 mM HEPES pH 7.5, 10 mM magnesium acetate and 50 μM unlabeled ATP. […] The reaction proceeded either for one hour or overnight at 30° C.
Following incubation, 20 μl of reaction mixture was transferred to a high capacity streptavidin coated filter plate (SAM-streptavidin-matrix, Promega) prewetted with phosphate buffered saline. […] Filter plates were air dried and 20 μl of scintillant was added. The plates were sealed and counted.

T1 sequence (Q16539 whole entry): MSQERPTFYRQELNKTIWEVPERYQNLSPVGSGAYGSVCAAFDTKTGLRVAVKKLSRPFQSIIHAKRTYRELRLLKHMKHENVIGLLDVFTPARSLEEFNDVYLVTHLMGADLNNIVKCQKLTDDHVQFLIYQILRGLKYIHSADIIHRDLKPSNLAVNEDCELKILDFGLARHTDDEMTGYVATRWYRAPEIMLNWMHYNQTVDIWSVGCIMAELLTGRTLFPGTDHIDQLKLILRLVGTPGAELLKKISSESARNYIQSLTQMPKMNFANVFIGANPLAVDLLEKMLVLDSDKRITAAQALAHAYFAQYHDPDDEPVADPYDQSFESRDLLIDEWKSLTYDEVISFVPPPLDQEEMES

| SMILES | P38 alpha kinase % inhib @ conc. [% @ 1.0 uM] |
| --- | --- |
| O=C(NCc1[nH]nc(-c2ccc(F)cc2)c1-c1ccncc1)c1ccc(OC(F)(F)F)cc1 [Example B-0028] | 69.0 |
| O=C(NCc1[nH]nc(-c2ccc(F)cc2)c1-c1ccncc1)[C@@H]1C[C@@H]1c1ccccc1 [Example B-0002] | 71.1 |
| O=C(CCC1CC=CC1)NCc1[nH]nc(-c2ccc(F)cc2)c1-c1ccncc1 [Example B-0038] | 71.0 |

Same assay, conditions: @ 1.0 uM; read-out: P38 alpha kinase % inhib @ conc.

| SMILES | inhibition at 1 µM [%] |
| --- | --- |
| CC(C)[C@H]1CC[C@@H](C)C[C@@H]1OCC(=O)NCc1[nH]nc(-c2ccc(F)cc2)c1-c1ccncc1 [Example B-0084] | 56 |
| O=S(=O)(NCc1[nH]nc(-c2ccc(F)cc2)c1-c1ccncc1)c1ccc(Cl)c(Cl)c1 [Example B-0135] | 78 |
| O=C(NCc1[nH]nc(-c2ccc(F)cc2)c1-c1ccncc1)c1ccc(C(F)(F)F)cc1F [Example B-0061] | 62 |
| O=C(NCc1[nH]nc(-c2ccc(F)cc2)c1-c1ccncc1)c1cccnc1Cl [Example B-0053] | 95 |
| O=S(=O)(NCc1[nH]nc(-c2ccc(F)cc2)c1-c1ccncc1)c1cccs1 [Example B-0121] | 79 |
| CCOc1ccc2ccccc2c1C(=O)NCc1[nH]nc(-c2ccc(F)cc2)c1-c1ccncc1 [Example B-0059] | 83 |
| Cc1cccc(C(=O)NCc2[nH]nc(-c3ccc(F)cc3)c2-c2ccncc2)c1 [Example B-0067] | 91 |
| O=C(OCc1ccccc1C(=O)NCc1[nH]nc(-c2ccc(F)cc2)c1-c1ccncc1)c1ccccc1 [Example B-0092] | 97 |
| O=C(NCc1[nH]nc(-c2ccc(F)cc2)c1-c1ccncc1)c1cccc(F)c1 [Example B-0069] | 96 |
| COC(=O)c1ccc(C(=O)NCc2[nH]nc(-c3ccc(F)cc3)c2-c2ccncc2)cc1 [Example B-0082] | 47 |
| COc1cccc(C(=O)NCc2[nH]nc(-c3ccc(F)cc3)c2-c2ccncc2)c1 [Example B-0075] | 91 |
| COc1ccc(C(=O)NCc2[nH]nc(-c3ccc(F)cc3)c2-c2ccncc2)c(OC)c1 [Example B-0086] | 91 |
| O=C(NCc1[nH]nc(-c2ccc(F)cc2)c1-c1ccncc1)c1ccno1 [Example B-0054] | 90 |
| COC(=O)CC(=O)NCc1[nH]nc(-c2ccc(F)cc2)c1-c1ccncc1 [Example B-0091] | 96 |
| O=C(NCc1ccccc1)NCc1[nH]nc(-c2ccc(F)cc2)c1-c1ccncc1 [Example B-0151] | 43 |
| O=S(=O)(NCc1[nH]nc(-c2ccc(F)cc2)c1-c1ccncc1)c1ccc(Cl)s1 [Example B-0144] | 86 |

Same assay, conditions: @ 10.0 uM; read-out: P38 alpha kinase % inhib @ conc.

| SMILES | inhibition at 10 µM [%] |
| --- | --- |
| COC(=O)c1ccccc1NC(=O)NCc1[nH]nc(-c2ccc(F)cc2)c1-c1ccncc1 [Example B-0158] | 58 |
| O=C(NCc1[nH]nc(-c2ccc(F)cc2)c1-c1ccncc1)Nc1cc(Cl)ccc1Cl [Example B-0183] | 12 |
| CC(C)c1ccccc1NC(=O)NCc1[nH]nc(-c2ccc(F)cc2)c1-c1ccncc1 [Example B-0179] | 27 |
| CCOC(=O)C(NC(=O)NCc1[nH]nc(-c2ccc(F)cc2)c1-c1ccncc1)C(C)C (centres unmarked) [Example B-0188] | 70 |
| CC(C)c1ccc(NC(=O)NCc2[nH]nc(-c3ccc(F)cc3)c2-c2ccncc2)cc1 [Example B-0178] | 12 |
| CCCCCCCCCCS(=O)(=O)NCc1[nH]nc(-c2ccc(F)cc2)c1-c1ccncc1 [Example B-0125] | 70 |
| CC(=O)Nc1nc(C)c(S(=O)(=O)NCc2[nH]nc(-c3ccc(F)cc3)c2-c2ccncc2)s1 [Example B-0097] | 72 |
| COc1cccc(NC(=O)NCc2[nH]nc(-c3ccc(F)cc3)c2-c2ccncc2)c1 [Example B-0160] | 59 |

Same assay, conditions: p38α in vitro, PHAS-I assay procedure; read-out: p38^1 IC50

| SMILES | IC50 [nM] |
| --- | --- |
| Fc1ccc(-c2n[nH]c(NCCN3CCOCC3)c2-c2ccncc2)cc1 [Example A-218, N-[5-(4-fluorophenyl)-4-(4-pyridinyl)-1H-pyrazol-3-yl]-4-morpholineethanamine] | 44 |
| Fc1ccc(CNc2cc(-c3cn(CCN4CCOCC4)nc3-c3ccc(F)cc3)ccn2)cc1 [Example A-285, N-[(4-fluorophenyl)methyl]-4-[3-(4-fluorophenyl)-1-[2-(4-morpholinyl)ethyl]-1H-pyrazol-4-yl]-2-pyridinamine] | < 100 |
| O=C(O)CNc1[nH]nc(-c2ccc(F)cc2)c1-c1ccncc1 [Example A-293, N-[5-(4-fluorophenyl)-4-(4-pyridinyl)-1H-pyrazol-3-yl]glycine] | 730 |
| Cn1cc(-c2ccnc(NCCO)c2)c(-c2ccc(F)cc2)n1 [Example A-281, 2-[[4-[3-(4-fluorophenyl)-1-methyl-1H-pyrazol-4-yl]-2-pyridinyl]amino]ethanol] | 53 |

Same assay, conditions: read-out: P38 alpha kinase IC50

| SMILES | IC50 [nM] |
| --- | --- |
| Cc1cc(C)c(C(=O)NCc2[nH]nc(-c3ccc(F)cc3)c2-c2ccncc2)c(C)c1 [Example B-0280] | 860 |
| O=C(NCCCc1[nH]nc(-c2ccc(F)cc2)c1-c1ccncc1)c1ccccc1Br [Example B-1355] | 700 |
| COc1cccc(C(=O)N[C@H](C)c2[nH]nc(-c3ccc(F)cc3)c2-c2ccncc2)c1 [Example B-0380] | 1410 |
| CC(NC(=O)c1cccc(C(F)(F)F)c1)c1[nH]nc(-c2ccc(F)cc2)c1-c1ccncc1 (centres unmarked) [Example B-0672] | 6590 |
| CC(=O)Nc1nc(C)c(S(=O)(=O)N[C@H](C)c2[nH]nc(-c3ccc(F)cc3)c2-c2ccncc2)s1 [Example B-0430] | 290 |
| Cc1ccc(C(=O)NC(C)c2[nH]nc(-c3ccc(F)cc3)c2-c2ccncc2)cc1 (centres unmarked) [Example B-0551] | 1080 |
| C[C@@H](NC(=O)c1cnc2ccccc2n1)c1[nH]nc(-c2ccc(F)cc2)c1-c1ccncc1 [Example B-0384] | 4020 |
| Cc1cccc(Cl)c1S(=O)(=O)NCc1[nH]nc(-c2ccc(F)cc2)c1-c1ccncc1 [Example B-0243] | 39 |
| CC(Oc1ccccc1)C(=O)N[C@H](C)c1[nH]nc(-c2ccc(F)cc2)c1-c1ccncc1 (some centres unmarked) [Example B-0381] | 220 |
| CC(=O)NC(C)c1[nH]nc(-c2ccc(F)cc2)c1-c1ccncc1 (centres unmarked) [Example B-0536] | 460 |
| C[C@@H](NS(=O)(=O)c1ccc(-c2ccon2)s1)c1[nH]nc(-c2ccc(F)cc2)c1-c1ccncc1 [Example B-0485] | 40 |
| C[C@@H](NS(=O)(=O)c1ccc(Cl)s1)c1[nH]nc(-c2ccc(F)cc2)c1-c1ccncc1 [Example B-0473] | 4 |
| C[C@@H](NC(=O)c1ccc(Cl)cc1Cl)c1[nH]nc(-c2ccc(F)cc2)c1-c1ccncc1 [Example B-0516] | 370 |
| O=C(NCc1[nH]nc(-c2ccc(F)cc2)c1-c1ccncc1)c1ccc(C(F)(F)F)cc1F [Example B-0283] | 6660 |
| CC1(C)C2CCC1(CS(=O)(=O)NCc1[nH]nc(-c3ccc(F)cc3)c1-c1ccncc1)C(=O)C2 (centres unmarked) [Example B-0227] | 45 |
| O=C(NCc1[nH]nc(-c2ccc(F)cc2)c1-c1ccncc1)c1cc(F)ccc1F [Example B-0295] | 820 |
| O=C(NCc1[nH]nc(-c2ccc(F)cc2)c1-c1ccncc1)c1cccc(F)c1F [Example B-0293] | 660 |
| C[C@@H](NC(=O)c1ccc(F)c(C(F)(F)F)c1)c1[nH]nc(-c2ccc(F)cc2)c1-c1ccncc1 [Example B-0512] | 1000 |
| CC(NS(=O)(=O)c1ccccc1C#N)c1[nH]nc(-c2ccc(F)cc2)c1-c1ccncc1 (centres unmarked) [Example B-0627] | 250 |
